The values that follow come from article PMC5722318, “Absence of anti-hypocretin receptor 2 autoantibodies in post pandemrix narcolepsy cases” (PLoS ONE, 2017).

Where two headings read alike, the source gives them in different places.

This test concerns DQ0602. In kind it is binding, human. Conditions: for % Read #1 / Read #1: replicate 1; for % Average: mean of two reads; for % Read #2 / Read #2: replicate 2; for Average: mean of the two raw reads; for Read #1 / Read #2: raw signal read.
The mark [1] stands for this setting: % of Bio-EBV binding, first assay (02/04/2016, 07/15/2016 or 08/11/2016, by peptide).
Setting [2] is: % of Bio-EBV binding, repeat assay (07/19/2016, 07/18/2016 or 08/12/2016, by peptide).
[3] abbreviates: first assay (02/04/2016, 07/15/2016 or 08/11/2016, by peptide).
Where [4] appears, read: repeat assay (07/19/2016, 07/18/2016 or 08/12/2016, by peptide).

Take YDDEEFLRYLWR [HCRTR2_34-45]: where the note is “competition with Bio-EBV epitope, 40 μM peptide, […]”, the “binding to DQ0602 (in words)” value was “did not appear to bind to DQ0602”.

As to “HDSNKGVTAACPH [HA143-155 146N, synthetic 13-mer hemagglutinin peptide containing wild-type 146N]”, the “Average (two assays)” value was 43.7826%. For the same sequence, for the setting “40 μM competitor peptide, 25 nM DQ0602, 100 nM HLA-DM, 1 μM Bio-EBV, acetate pH 4.6, 3 days at 37°C, duplicate, Eu-streptavidin TRF, lower percentage = stronger competitor”, the “mean of Bio-EBV epitope binding ± SD” value is 43.78% ± 1.34%. The “% Read #1” value (% of Bio-EBV binding (Bio-EBV average = 100), first assay (02/04/2016, 07/15/2016 or 08/11/2016, by peptide)) turned out to be 41.1935%. Further, under setting [1], the “% Average” value worked out at 42.8329% and the “% Read #2” value is 44.4722%. Besides, under setting [2], the “% Average” value stood at 44.7324%, the “% Read #1” value was found to be 43.7047% and the “% Read #2” value turned out to be 45.7602%. Moreover, under setting [3], the Average is listed as 8060.5 and the “Read #2” value was 8369. Further, under setting [4], the Average turned out to be 7464.5, the “Read #1” value is listed as 7293 and the “Read #2” value was determined as 7636. Besides, under “first assay (02/04/2016, 07/15/2016 or 08/11/2016, by peptide), competition against Bio-EBV epitope”, the “Read #1” value was found to be 7752.
